According to PMC3115501 (Archives of biochemistry and biophysics, 2011):
Marks after values point to notes of the source that are not given here.

Tests used:
[1] = target: T1, CYP3A4 (Homo sapiens, UniProt P08684, S18F); details: cited from earlier work
[2] = system: CYP3A4; details: cited from earlier work
[3] = system: 3A4; details: 3A4 in the presence of testosterone, reduction by NADPH/P450 reductase; cited from earlier work
[4] = target: T1, CYP3A4; assay: Redox potential measurements by cyclic voltammetry of purified CYP3A4; details: 11 μM 3A4 complexed with 200 μM TST or 100 μM compound 1

| Compound | rate of dissociation from the low-spin complex [1] [s⁻¹] | kcat [2] [s⁻¹] | reduction rate, reported value [3] [s⁻¹] | ks (rate of electron transfer / rate constant for reduction) [4] [s⁻¹] | α (electron transfer coefficient) [4] | E^0 (formal potential) ([4]; Equation 1) | ΔEp, ½ ([4]; equation 2) | ks (rate of electron transfer / rate constant for reduction) ([4]; listed as TST) [s⁻¹] |
| --- | --- | --- | --- | --- | --- | --- | --- | --- |
| CCC(C)n1ncn(-c2ccc(N3CCN(c4ccc(OCC5COC(Cn6cncn6)(c6ccc(Cl)cc6Cl)O5)cc4)CC3)cc2)c1=O (centres unmarked) [Itraconazole, itraconazole] | 0.002 | 0.0045 |  |  |  |  |  |  |
| C[C@]12CC[C@H]3[C@@H](CCC4=CC(=O)CC[C@@]43C)[C@@H]1CC[C@@H]2O [Testosterone] |  |  | 21 | 5.6 | 0.396 | -189 (3) ^e mV | 157 (6) mV | 5.56 |
